# Measured values reported in patent publication US7138361B2, “Herbicidal heterocycles” (E. I. du Pont de Nemours and Company, priority 2000, dated 2006).
# How the values were obtained:
# Type in all cases: in vivo
# Nightshade [1] = assay: Test C preemergence; conditions: Rate 500 g/ha, visual evaluation after 12 to 14 days
# [2] = tested on: yellow nutsedge (Cyperus esculentus); assay: Test C preemergence
# Method in brief: (§1)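 Test chemicals, formulated in a non-phytotoxic solvent mixture with surfactant, were applied preemergence to planted seeds or postemergence to plants 2 to 18 cm tall (1- to 4-leaf stage). After 12 to 14 days in a greenhouse, injury was visually rated against untreated controls on a 0–100 scale.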
# [3] = tested on: morningglory (Ipomoea hederacea); assay: Test C preemergence
# Method in brief: as §1
# [4] = tested on: common ragweed (Ambrosia elatior); assay: Test C preemergence
# Method in brief: as §1
# [5] = tested on: woolly cupgrass (Eriochloa villosa); assay: Test C preemergence
# Method in brief: as §1
# [6] = tested on: crabgrass (Digitaria sanguinalis); assay: Test C preemergence
# Method in brief: as §1
# [7] = tested on: pigweed (Amaranthus retroflexus); assay: Test C preemergence
# Method in brief: as §1
# soybean (Glycine max) = assay: Test C preemergence
# Method in brief: as §1
# corn (Zea mays) = assay: Test C preemergence
# Method in brief: as §1
# [8] = tested on: giant foxtail (Setaria faberii); assay: Test C preemergence
# Method in brief: as §1
# [9] = tested on: velvetleaf (Abutilon theophrasti); assay: Test C preemergence
# Method in brief: as §1
# [10] = tested on: bermudagrass (Cynodon dactylon); assay: Test C preemergence
# Method in brief: as §1
# [11] = tested on: lambsquarters (Chenopodium album); assay: Test C preemergence
# Method in brief: as §1
# Sunflower = assay: Test C preemergence; conditions: Rate 125 g/ha; scale 0 to 100, 0 no effect, 100 complete control
# [12] = tested on: goosegrass (Eleusine indica); assay: Test C preemergence
# Method in brief: as §1
# Nightshade [13] = assay: Test C preemergence
# [14] = tested on: cocklebur (Xanthium strumarium); assay: Test C preemergence; conditions: for Plant response rating, Cocklebur: scale 0 to 100, 0 no effect, 100 complete control
# Method in brief: as §1
# [15] = tested on: johnsongrass (Sorghum halepense); assay: Test C preemergence
# Method in brief: as §1
# [16] = tested on: Surinam grass (Brachiaria decumbens); assay: Test C preemergence
# Method in brief: as §1
# kochia (Kochia scoparia) = assay: Test C preemergence
# Method in brief: as §1
# rice (Oryza saliva) = assay: Test C flooded paddy test; conditions: for Plant response rating, Rice: scale 0 to 100 (0 no effect, 100 complete control)
# Method in brief: (§2)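 Response on a 0-to-100 scale (no effect to complete control) was assessed by eye versus controls. Plants had reached 2 leaves when treated in flooded paddy conditions. The assessment took place after 12–14 days of greenhouse growth.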
# [17] = tested on: duck salad (Heteranthera limosa); assay: Test C flooded paddy test; conditions: for Plant response rating, Ducksalad: scale 0 to 100 (0 no effect, 100 complete control)
# Method in brief: as §2
# [18] = tested on: smallflower flatsedge (Cyperus difformis); assay: Test C flooded paddy test; conditions: for Plant response rating, Flatsedge: scale 0 to 100 (0 no effect, 100 complete control)
# Method in brief: as §2
# [19] = Rate 125 g/ha, scale 0 to 100, 0 no effect, 100 complete control
# [20] = preemergence, Rate 62 g/ha, scale 0 to 100
# [21] = preemergence, Rate 500 g/ha, visual evaluation after 12 to 14 days
# [22] = preemergence, Rate 250 g/ha, scale 0 to 100, 0 no effect, 100 complete control
# [23] = Flooded Paddy, Rate 500 g/ha, scale 0 to 100, 0 no effect, 100 complete control
# [24] = flooded paddy test, Rate 125 g/ha
# [25] = flooded paddy test, Rate 250 g/ha
# [26] = flooded paddy test, Rate 62 g/ha, visually evaluated after 12 to 14 days, 0 = no effect, 100 = complete control
structure (smiles),measurement,setting,value
CCC(CC)c1ccn(C2CCN(c3ccc(Br)c(OC)c3)C2=O)n1 (stereo not drawn) [Compound 143],"Plant response rating (0 to 100), Nightshade",Nightshade [1],100
same,"Plant response rating, Nutsedge",[2]; [19],0
same,"Plant response rating, Nutsedge",[2]; [20],0
same,"Plant response rating (0 to 100), Nutsedge",[2]; [21],0
same,"Plant response rating, Nutsedge",[2]; [22],0
same,"Plant response rating, Morningglory",[3]; [19],100
same,"Plant response rating, Morningglory",[3]; [20],30
same,"Plant response rating (0 to 100), Morningglory",[3]; [21],100
same,"Plant response rating, Morningglory",[3]; [22],100
same,"Plant response rating, Ragweed, Common",[4]; [19],100
same,"Plant response rating, Ragweed, Common",[4]; [20],90
same,"Plant response rating (0 to 100), Ragweed, Common",[4]; [21],100
same,"Plant response rating, Ragweed, Common",[4]; [22],100
same,"Plant response rating, Cupgrass, Woolly",[5]; [19],100
same,"Plant response rating, Cupgrass, Woolly",[5]; [20],90
same,"Plant response rating (0 to 100), Cupgrass, Woolly",[5]; [21],100
same,"Plant response rating, Cupgrass, Woolly",[5]; [22],100
same,"Plant response rating, Crabgrass",[6]; [19],100
same,"Plant response rating, Crabgrass",[6]; [20],100
same,"Plant response rating (0 to 100), Crabgrass",[6]; [21],100
same,"Plant response rating, Crabgrass",[6]; [22],100
same,"Plant response rating, Pigweed",[7]; [19],100
same,"Plant response rating, Pigweed",[7]; [20],100
same,"Plant response rating (0 to 100), Pigweed",[7]; [21],100
same,"Plant response rating, Pigweed",[7]; [22],100
same,"Plant response rating, Soybean",soybean (Glycine max); [19],80
same,"Plant response rating, Soybean",soybean (Glycine max); [20],70
same,"Plant response rating (0 to 100), Soybean",soybean (Glycine max); [21],100
same,"Plant response rating, Soybean",soybean (Glycine max); [22],80
same,"Plant response rating, Corn",corn (Zea mays); [19],30
same,"Plant response rating, Corn",corn (Zea mays); [20],30
same,"Plant response rating (0 to 100), Corn",corn (Zea mays); [21],30
same,"Plant response rating, Corn",corn (Zea mays); [22],30
same,"Plant response rating, Foxtail, Giant",[8]; [19],100
same,"Plant response rating, Foxtail, Giant",[8]; [20],100
same,"Plant response rating (0 to 100), Foxtail, Giant",[8]; [21],100
same,"Plant response rating, Foxtail, Giant",[8]; [22],100
same,"Plant response rating, Velvetleaf",[9]; [19],70
same,"Plant response rating, Velvetleaf",[9]; [20],70
same,"Plant response rating (0 to 100), Velvetleaf",[9]; [21],100
same,"Plant response rating, Velvetleaf",[9]; [22],90
same,"Plant response rating, Bermudagrass",[10]; [19],100
same,"Plant response rating, Bermudagrass",[10]; [20],100
same,"Plant response rating (0 to 100 where 0 is no effect and 100 is complete control), Bermudagrass",[10]; [21],100
same,"Plant response rating, Bermudagrass",[10]; [22],100
same,"Plant response rating, Lambsquarters",[11]; [19],100
same,"Plant response rating, Lambsquarters",[11]; [20],100
same,"Plant response rating (0 to 100), Lambsquarters",[11]; [21],100
same,"Plant response rating, Lambsquarters",[11]; [22],100
same,"Plant response rating, Sunflower",Sunflower,80
same,"Plant response rating, Goosegrass",[12]; [19],100
same,"Plant response rating, Goosegrass",[12]; [20],100
same,"Plant response rating (0 to 100), Goosegrass",[12]; [21],100
same,"Plant response rating, Goosegrass",[12]; [22],100
same,"Plant response rating, Nightshade","Nightshade [13]; Rate 62 g/ha, scale 0 to 100",100
same,"Plant response rating, Nightshade",Nightshade [13]; [19],100
same,"Plant response rating, Nightshade","Nightshade [13]; Rate 250 g/ha, scale 0 to 100, 0 no effect, 100 complete control",100
same,"Plant response rating, Cocklebur",[14]; Rate 125 g/ha,50
same,"Plant response rating (0 to 100), Cocklebur",[14]; [21],55
same,"Plant response rating, Cocklebur","[14]; preemergence, Rate 250 g/ha",50
same,"Plant response rating, Johnsongrass",[15]; [19],60
same,"Plant response rating, Johnsongrass",[15]; [20],0
same,"Plant response rating (0 to 100), Johnsongrass",[15]; [21],90
same,"Plant response rating, Johnsongrass",[15]; [22],90
same,"Plant response rating, Surinam grass",[16]; [19],0
same,"Plant response rating, Surinam grass",[16]; [20],0
same,"Plant response rating (0 to 100), Surinam grass",[16]; [21],70
same,"Plant response rating, Surinam grass",[16]; [22],70
same,"Plant response rating, Kochia",kochia (Kochia scoparia); [19],100
same,"Plant response rating, Kochia",kochia (Kochia scoparia); [20],100
same,"Plant response rating (0 to 100), Kochia",kochia (Kochia scoparia); [21],100
same,"Plant response rating, Kochia",kochia (Kochia scoparia); [22],100
same,Rice plant response rating,rice (Oryza saliva); [23],60
same,"Plant response rating, Rice",rice (Oryza saliva); [24],30
same,"Plant response rating, Rice",rice (Oryza saliva); [25],50
same,"Plant response rating (scale 0 to 100), Rice",rice (Oryza saliva); [26],0
same,Ducksalad plant response rating,[17]; [23],100
same,"Plant response rating, Ducksalad",[17]; [24],75
same,"Plant response rating, Ducksalad",[17]; [25],95
same,"Plant response rating (scale 0 to 100), Ducksalad",[17]; [26],45
same,Flatsedge plant response rating,[18]; [23],100
same,"Plant response rating, Flatsedge",[18]; [24],95
same,"Plant response rating, Flatsedge",[18]; [25],95
same,"Plant response rating (scale 0 to 100), Flatsedge",[18]; [26],90
